Assay results published in patent US5059624A, “Guanidine derivatives having hypotensive activity, composition containing them and process for obtaining them” (Consiglio Nazionale Delle Ricerche, priority 1988, dated 1991).

System: male Wistar rats
Assay: Comparison with known active ingredients in male Wistar rats under sodium thiopental anaesthesia, rapid i.v. or 5 min infusion
Assay type: in vivo, rat (male Wistar)
Details: for Δ AP DIASTOLIC / Δ AP SYSTOLIC / Δ HR / Δ dp/dt: i.v., maximum response
Description: In order to compare the activity of the compounds of the present invention to that of the products of the prior art, various doses of known anti-hypertensive, hypotensive and vasoactive drugs were administered to male Wistar rats under general anaesthesia by sodium thiopental (50 mg/kg, i.p.). The administration was effected through "rapid" i.v. route or through intravenous infusion (inf.) for a time of 5 minutes.
The dose of each product is referred to the base, and the volumes injected were of 100 mcl in case of i.v. administration and […] total (0.9% sodium chloride solution) in case of infusion. The various parameters were evaluated in the same way as in the preceding experiments.

SMILES | Δ AP DIASTOLIC (1 mcg/kg) | Δ AP SYSTOLIC (1 mcg/kg) | Δ HR (1 mcg/kg) | Δ dp/dt (1 mcg/kg) | Δ AP DIASTOLIC (2 mg/kg) [mmHg] | Δ AP SYSTOLIC (2 mg/kg) [mmHg] | Δ HR (2 mg/kg) [beats/min] | Δ dp/dt (2 mg/kg) [mmHg/sec] | general effects on the various haemodynamic parameters (in words) (rat)
NC[C@H](O)c1ccc(O)c(O)c1 [Noradrenaline] | +31 ± 2 mmHg | +44 ± 3 mmHg | +14 ± 4 beats/min | +4314 ± 415 mmHg/sec |  |  |  |  | 
COc1ccc(Cc2nccc3cc(OC)c(OC)cc23)cc1OC [Papaverine] |  |  |  |  | -18 ± 3 | -23 ± 3 | -21 ± 5 | -604 ± 102 | general "depressive" effects
